Values quoted from earlier work as cited in patent publication US8440844B2, “Process for the preparation of β-amino alcohol” (Council of Scientific & Industrial Research, priority 2011, dated 2013).

What was measured:
[1] = biological target: γ-secretase; conditions: Notch-1-sparing γ-secretase inhibitor; background statement, no method given
[2] = system: β-amyloid (Aβ) production; conditions: background statement

## CCC(CC)[C@@H](CO)NS(=O)(=O)c1ccc(Cl)s1 [(S)—N-(5-chlorothiophene-2-sulfonyl)-β,β-diethylalaninol]
[1]
  EC50: 28 nM
[2]
  reduction of Aβ production in vivo: effective in reduction of Aβ production in vivo
